{"source": "patent US11524968B2", "about": "“Heterocyclic compound as a protein kinase inhibitor” (HK inno.N Corporation, priority 2017, dated 2022)", "data": [{"biological_target": "JAK1 (Homo sapiens (Human), UniProt P23458)", "sequence (P23458 whole entry)": "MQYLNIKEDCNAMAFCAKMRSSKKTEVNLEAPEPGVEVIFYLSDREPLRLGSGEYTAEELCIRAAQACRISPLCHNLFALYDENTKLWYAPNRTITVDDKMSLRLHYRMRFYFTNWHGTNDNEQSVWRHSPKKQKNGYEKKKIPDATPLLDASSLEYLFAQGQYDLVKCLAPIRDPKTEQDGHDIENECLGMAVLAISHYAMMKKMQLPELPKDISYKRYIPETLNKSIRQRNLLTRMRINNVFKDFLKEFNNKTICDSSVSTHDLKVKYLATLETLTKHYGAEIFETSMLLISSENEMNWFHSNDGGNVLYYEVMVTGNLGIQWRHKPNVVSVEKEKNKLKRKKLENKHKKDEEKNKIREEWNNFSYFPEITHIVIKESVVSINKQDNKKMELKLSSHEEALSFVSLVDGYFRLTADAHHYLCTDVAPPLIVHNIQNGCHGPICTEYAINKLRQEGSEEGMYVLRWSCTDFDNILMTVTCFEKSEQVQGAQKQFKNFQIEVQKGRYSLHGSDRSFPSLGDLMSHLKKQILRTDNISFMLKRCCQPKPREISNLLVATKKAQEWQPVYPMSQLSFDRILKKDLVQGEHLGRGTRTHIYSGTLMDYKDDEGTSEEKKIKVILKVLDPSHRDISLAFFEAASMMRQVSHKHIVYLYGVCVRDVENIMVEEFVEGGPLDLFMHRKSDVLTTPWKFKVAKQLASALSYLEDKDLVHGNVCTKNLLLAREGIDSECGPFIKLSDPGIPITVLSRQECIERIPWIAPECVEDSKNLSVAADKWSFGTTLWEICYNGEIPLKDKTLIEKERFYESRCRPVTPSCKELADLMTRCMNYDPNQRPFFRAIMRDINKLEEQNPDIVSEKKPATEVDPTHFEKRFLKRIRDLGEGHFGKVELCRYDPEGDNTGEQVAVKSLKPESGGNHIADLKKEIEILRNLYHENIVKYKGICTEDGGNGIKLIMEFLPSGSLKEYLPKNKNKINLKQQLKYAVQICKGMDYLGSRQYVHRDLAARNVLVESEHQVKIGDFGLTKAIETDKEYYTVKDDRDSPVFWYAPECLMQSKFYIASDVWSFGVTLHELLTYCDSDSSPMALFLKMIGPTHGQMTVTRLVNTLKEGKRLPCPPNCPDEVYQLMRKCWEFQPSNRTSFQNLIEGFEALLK", "test": "Analysis of JAK1 activity inhibition ability (ADP-Glo Kinase Assay)", "type": "biochemical", "conditions": "JAK1 enzyme, ADP-Glo luminescence, ATP 250 uM, IRS-itide substrate, 30° C. 40 minutes; read-out: IC50", "method_in_brief": "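JAK1 enzyme, IRS-itide substrate (40 ng/mL) and 250 uM ATP, both as prepared in kinase buffer (Tris-HCl pH 7.5, MgCl2, BSA, DTT), reacted with compound 40 min at 30 °C. ADP formed was detected by ADP-Glo luminescence; IC50 is the concentration giving 50% inhibition versus control.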", "units": {"IC50": "nM"}, "values": [{"compound": "N#CCCC(=O)N1CCC=C(c2cc(NC(=O)C3CC3)nc3[nH]ccc23)C1", "note": "[Example 421, N-(4-(1-(3-cyanopropanoyl)-1,2,5,6-tetrahydropyridin-3-yl)-1H-pyrrolo[2,3-b]pyridin-6-yl)cyclopropanecarboxamide]", "IC50": "20 to 200"}, {"compound": "CC1(C)CN(C(=O)CC#N)CC=C1c1cc(NC(=O)C2CC2)nc2[nH]ccc12", "note": "[Example 299, N-(4-(1-(2-cyanoacetyl)-3,3-dimethyl-1,2,3,6-tetrahydropyridin-4-yl)-1H-pyrrolo[2,3-b]pyridin-6-yl)cyclopropanecarboxamide]", "IC50": "20 to 200"}, {"compound": "O=C(Nc1cc(-c2ccc(NS(=O)(=O)C3CCC3)c(F)c2)c2cc[nH]c2n1)C1CC1", "note": "[Example 78, N-(4-(4-(cyclobutanesulfonamido)-3-fluorophenyl)-1H-pyrrolo[2,3-b]pyridin-6-yl)cyclopropanecarboxamide]", "IC50": "< 20"}, {"compound": "CCS(=O)(=O)Nc1ccc(-c2cc(NC(=O)C(C)C)nc3[nH]ccc23)cc1F", "note": "[Example 711, N-(4-(4-(ethylsulfonamido)-3-fluorophenyl)-1H-pyrrolo[2,3-b]pyridin-6-yl)isobutyramide]", "IC50": "> 200"}, {"compound": "O=C(Nc1cc(N2CC3CCC(C2)N3C(=O)NCC(F)(F)F)c2cc[nH]c2n1)C1CC1", "note": "[Example 691, 3-(6-(cyclopropanecarboxamido)-1H-pyrrolo[2,3-b]pyridin-4-yl)-N-(2,2,2-trifluoroethyl)-3,8-diazabicyclo[3.2.1]octane-8-carboxamide]", "IC50": "< 20"}, {"compound": "CCCS(=O)(=O)Nc1ccc(-c2cc(NC(=O)C3CC3)nc3[nH]cc(C)c23)cc1", "note": "[Example 94, N-(3-methyl-4-(4-(propylsulfonamido)phenyl)-1H-pyrrolo[2,3-b]pyridin-6-yl)cyclopropanecarboxamide]", "IC50": "20 to 200"}, {"compound": "CN1CCC(C(=O)N2CC=C(c3cc(NC(=O)C4CC4)nc4[nH]ccc34)CC2)C1", "note": "(stereo not shown) [Example 280, N-(4-(1-(1-methylpyrrolidine-3-carbonyl)-1,2,3,6-tetrahydropyridin-4-yl)-1H-pyrrolo[2,3-b]pyridin-6-yl)cyclopropanecarboxamide]", "IC50": "> 200"}, {"compound": "O=C(Nc1cc(-c2ccc(CC(=O)N3CCS(=O)(=O)CC3)c(F)c2)c2cc[nH]c2n1)C1CC1", "note": "[Example 559, N-(4-(4-(2-(1,1-dioxidothiomorpholino)-2-oxoethyl)-3-fluorophenyl)-1H-pyrrolo[2,3-b]pyridin-6-yl)cyclopropanecarboxamide]", "IC50": "20 to 200"}, {"compound": "O=C(Nc1cc(C2CC3CCC(C2)N3S(=O)(=O)c2ccc(F)c(F)c2)c2cc[nH]c2n1)C1CC1", "note": "(stereo not shown) [Example 649, N-(4-(8-((3,4-difluorophenyl)sulfonyl)-8-azabicyclo[3.2.1]octan-3-yl)-1H-pyrrolo[2,3-b]pyridin-6-yl)cyclopropanecarboxamide]", "IC50": "> 200"}, {"compound": "O=C(Nc1cc(-c2ccc(NS(=O)(=O)C3CCC3)cc2)c2cc[nH]c2n1)C1CC1", "note": "[Example 58, N-(4-(4-(cyclobutanesulfonamido)phenyl)-1H-pyrrolo[2,3-b]pyridin-6-yl)cyclopropanecarboxamide]", "IC50": "< 20"}, {"compound": "N#CC1CCN(C(=O)C(F)(F)c2ccc(-c3cc(NC(=O)C4CC4)nc4[nH]ccc34)cc2)CC1", "note": "[Example 575, N-(4-(4-(2-(4-cyanopiperidin-1-yl)-1,1-difluoro-2-oxoethyl)phenyl)-1H-pyrrolo[2,3-b]pyridin-6-yl)cyclopropanecarboxamide]", "IC50": "20 to 200"}, {"compound": "CCNC(=O)Cc1ccc(-c2cc(NC(=O)C3CC3)nc3[nH]ccc23)cc1", "note": "[Example 541, N-(4-(4-(2-(ethylamino)-2-oxoethyl)phenyl)-1H-pyrrolo[2,3-b]pyridin-6-yl)cyclopropanecarboxamide]", "IC50": "20 to 200"}, {"compound": "CCCS(=O)(=O)Nc1ccc(-c2cc(NC(=O)C3CC3)nc3[nH]ccc23)c(C)c1C", "note": "[Example 132, N-(4-(2,3-dimethyl-4-(propylsulfonamido)phenyl)-1H-pyrrolo[2,3-b]pyridin-6-yl)cyclopropanecarboxamide]", "IC50": "20 to 200"}, {"compound": "CCNC(=O)Nc1ccc(-c2cc(NC(=O)C3CC3)nc3[nH]ccc23)cc1", "note": "[Example 431, N-(4-(4-(3-ethylureido)phenyl)-1H-pyrrolo[2,3-b]pyridin-6-yl)cyclopropanecarboxamide]", "IC50": "20 to 200"}, {"compound": "CCS(=O)(=O)N1CC(n2cc(-c3cc(NC(=O)C4CC4)nc4[nH]ccc34)cn2)C1", "note": "[Example 601, N-(4-(1-(1-(ethylsulfonyl)azetidin-3-yl)-1H-pyrazol-4-yl)-1H-pyrrolo[2,3-b]pyridin-6-yl)cyclopropanecarboxamide]", "IC50": "20 to 200"}, {"compound": "O=C(Nc1cc(-c2ccc(CC(=O)N3CCC3)cc2)c2cc[nH]c2n1)C1CC1", "note": "[Example 546, N-(4-(4-(2-(azetidin-1-yl)-2-oxoethyl)phenyl)-1H-pyrrolo[2,3-b]pyridin-6-yl)cyclopropanecarboxamide]", "IC50": "20 to 200"}, {"compound": "O=C(Nc1nc(-c2ccc(NS(=O)(=O)N3CCOCC3)cc2)c2nc[nH]c2n1)C1CC1", "note": "[Example 238, N-(6-(4-(morpholine-4-sulfonamido)phenyl)-9H-purin-2-yl)cyclopropanecarboxamide]", "IC50": "> 200"}, {"compound": "CC1CN(S(=O)(=O)Nc2ccc(-c3nc(NC(=O)C4CC4)nc4[nH]ccc34)cc2)CC(C)O1", "note": "(stereo not shown) [Example 237, N-(4-(4-((2,6-dimethylmorpholine)-4-sulfonamido)phenyl)-7H-pyrrolo[2,3-d]pyrimidin-2-yl)cyclopropanecarboxamide]", "IC50": "> 200"}, {"compound": "CCNC(=S)Nc1ccc(-c2cc(NC(=O)C3CC3)nc3[nH]ccc23)cc1", "note": "[Example 462, N-(4-(4-(3-ethylthioureido)phenyl)-1H-pyrrolo[2,3-b]pyridin-6-yl)cyclopropanecarboxamide]", "IC50": "20 to 200"}, {"compound": "O=C(Nc1nc(-c2ccc(NS(=O)(=O)c3ccc(F)c(F)c3)c(F)c2)c2cc[nH]c2n1)C1CC1", "note": "[Example 205, N-(4-(4-((3,4-difluorophenyl)sulfonamido)-3-fluorophenyl)-7H-pyrrolo[2,3-d]pyrimidin-2-yl)cyclopropanecarboxamide]", "IC50": "20 to 200"}, {"compound": "CCS(=O)(=O)Nc1ccc(-c2cc(N/C(=N\\C)C3CC3)nc3[nH]ccc23)cc1", "note": "[Example 714, (Z)—N-(4-(4-(ethylsulfonamido)phenyl)-1H-pyrrolo[2,3-b]pyridin-6-yl)-N′-methylcyclopropanecarboximidamide]", "IC50": "> 200"}, {"compound": "O=C(Nc1cc(C2=CCN(C(=O)c3cnon3)CC2)c2cc[nH]c2n1)C1CC1", "note": "[Example 286, N-(4-(1-(1,2,5-oxadiazole-3-carbonyl)-1,2,3,6-tetrahydropyridin-4-yl)-1H-pyrrolo[2,3-b]pyridin-6-yl)cyclopropanecarboxamide]", "IC50": "20 to 200"}, {"compound": "N#CCC1(CS(=O)(=O)N2C3CCC2CN(c2cc(NC(=O)C4CC4)nc4[nH]ccc24)C3)CC1", "note": "[Example 665, N-(4-(8-(((1-(cyanomethyl)cyclopropyl)methyl)sulfonyl)-3,8-diazabicyclo[3.2.1]octan-3-yl)-1H-pyrrolo[2,3-b]pyridin-6-yl)cyclopropanecarboxamide]", "IC50": "20 to 200"}, {"compound": "COC(=O)C1(C(=O)N2CC=C(c3cc(NC(=O)C4CC4)nc4[nH]ccc34)C(C)C2)CCC1", "note": "(stereo not shown) [Example 318, methyl 1-(4-(6-(cyclopropanecarboxamido)-1H-pyrrolo[2,3-b]pyridin-4-yl)-3-methyl-1,2,3,6-tetrahydropyridine-1-carbonyl)cyclobutane-1-carboxylate]", "IC50": "> 200"}, {"compound": "CCS(=O)(=O)Oc1ccc(-c2cc(NC(=O)C3CC3)nc3[nH]ccc23)cc1", "note": "[Example 629, 4-(6-(cyclopropanecarboxamido)-1H-pyrrolo[2,3-b]pyridin-4-yl)phenyl ethanesulfonate]", "IC50": "20 to 200"}]}]}
